From article PMC2819846 (Mutation research, 2008)

How the values were obtained:
Format in all cases: cell-based
Salmonella TA98 = test: Salmonella plate-incorporation mutagenicity assay, strain TA98, with S9 mix
Salmonella TA104 = test: Salmonella plate-incorporation mutagenicity assay, strain TA104, with S9 mix; details: for Mutagenic potency, Revertants/µg ± S.E., TA104: plate-incorporation, +S9
Salmonella TA100 = test: Salmonella plate-incorporation mutagenicity assay, strain TA100; details: for Mutagenic potency, Revertants/µg ± S.E., TA100 / Mutagenicity call TA100: plate-incorporation, +S9
[1] = TA98 +S9, Test 1, 2 µg/plate, zero-dose 33/40/39
[2] = TA98 +S9, Test 1, 5 µg/plate, zero-dose 33/40/39
[3] = TA98 +S9, Test 1, 10 µg/plate, zero-dose 33/40/39
[4] = TA98 +S9, Test 1, 20 µg/plate, zero-dose 33/40/39
[5] = TA98 +S9, Test 1, 40 µg/plate, zero-dose 33/40/39
[6] = TA98 +S9, Test 1, 80 µg/plate, zero-dose 33/40/39
[7] = TA98 +S9, Test 2, 20 µg/plate, zero-dose 43/41/30
[8] = TA98 +S9, Test 2, 40 µg/plate, zero-dose 43/41/30
[9] = TA98 +S9, Test 2, 80 µg/plate, zero-dose 43/41/30
[10] = TA98 +S9, Test 3, 20 µg/plate, zero-dose 49/50/50
[11] = TA98 +S9, Test 3, 40 µg/plate, zero-dose 49/50/50
[12] = TA100 +S9, Test 1, 2 µg/plate, zero-dose 99/110/110
[13] = TA100 +S9, Test 1, 5 µg/plate, zero-dose 99/110/110
[14] = TA100 +S9, Test 1, 10 µg/plate, zero-dose 99/110/110
[15] = TA100 +S9, Test 1, 20 µg/plate, zero-dose 99/110/110
[16] = TA100 +S9, Test 1, 40 µg/plate, zero-dose 99/110/110
[17] = TA100 +S9, Test 1, 80 µg/plate, zero-dose 99/110/110
[18] = TA104 +S9, Test 2, 2 µg/plate, zero-dose 276/260/270
[19] = TA104 +S9, Test 3, 2 µg/plate, zero-dose 402/395/336

O[C@@H]1c2ccccc2-c2c(ccc3ccccc23)[C@H]1O (racemic) [B[c]P 5,6-diol, (± )-trans-5,6-Dihydrobenzo[c]phenanthrene 5,6-diol]
Rev/plate (Salmonella TA98; [1]): 31 rev/plate
Rev/plate (Salmonella TA98; [2]): 41 rev/plate
Rev/plate (Salmonella TA98; [3]): 41 rev/plate
Rev/plate (Salmonella TA98; [4]): 29 rev/plate
Rev/plate (Salmonella TA98; [5]): 34 rev/plate
Rev/plate (Salmonella TA98; [6]): 40 rev/plate
Rev/plate (Salmonella TA98; TA98 +S9, Test 2, 10 µg/plate, zero-dose 43/41/30): 43/42
Rev/plate (Salmonella TA98; [7]): 27/49
Rev/plate (Salmonella TA98; [8]): 46/33
Rev/plate (Salmonella TA98; [9]): 52/35
Rev/plate (Salmonella TA98; TA98 +S9, Test 3, 10 µg/plate, zero-dose 49/50/50): 51/47
Rev/plate (Salmonella TA98; [10]): 46/60
Rev/plate (Salmonella TA98; [11]): 51/47
Rev/plate (Salmonella TA98; TA98 +S9, Test 3, 100 µg/plate, zero-dose 49/50/50): 32/47
Mutagenic potency, Revertants/µg ± S.E., TA98 (Salmonella TA98; plate-incorporation, +S9): −0.1 ± 0.1 rev/µg
Rev/plate (Salmonella TA104; TA104 +S9, Test 2, 40 µg/plate, zero-dose 276/260/270): 457 rev/plate
Rev/plate (Salmonella TA104; TA104 +S9, Test 2, 80 µg/plate, zero-dose 276/260/270): 506 rev/plate
Rev/plate (Salmonella TA104; TA104 +S9, Test 2, 120 µg/plate, zero-dose 276/260/270): 507 rev/plate
Mutagenic potency, Revertants/µg ± S.E., TA104 (Salmonella TA104): 2.5 ± 1.2 rev/µg
Rev/plate (Salmonella TA100; [12]): 132 rev/plate
Rev/plate (Salmonella TA100; [13]): 151 rev/plate
Rev/plate (Salmonella TA100; [14]): 147 rev/plate
Rev/plate (Salmonella TA100; [15]): 192 rev/plate
Rev/plate (Salmonella TA100; [16]): 193 rev/plate
Rev/plate (Salmonella TA100; [17]): 263 rev/plate
Rev/plate (Salmonella TA100; TA100 +S9, Test 2, 40 µg/plate, zero-dose 84/78/80): 161/116
Rev/plate (Salmonella TA100; TA100 +S9, Test 2, 80 µg/plate, zero-dose 84/78/80): 129/144
Rev/plate (Salmonella TA100; TA100 +S9, Test 2, 120 µg/plate, zero-dose 84/78/80): 127/129
Rev/plate (Salmonella TA100; TA100 +S9, Test 3, 40 µg/plate, zero-dose 127/118/125): 210/248
Rev/plate (Salmonella TA100; TA100 +S9, Test 3, 80 µg/plate, zero-dose 127/118/125): 306/328
Rev/plate (Salmonella TA100; TA100 +S9, Test 3, 120 µg/plate, zero-dose 127/118/125): 375/304
Mutagenic potency, Revertants/µg ± S.E., TA100 (Salmonella TA100): 1.6 ± 0.7 rev/µg
Mutagenicity call TA100 (Salmonella TA100): (+) (Called mutagenic (+) based on showing reproducible, dose-related increases in rev/plate that reached or exceeded 2-fold relative to zero-dose controls)

O[C@@H]1c2ccccc2-c2c(ccc3sccc23)[C@H]1O (racemic) [P[3,4-b]T 6,7-diol, (± )-trans-6,7-Dihydrophenanthro[3,4-b]thiophene 6,7-diol]
Rev/plate (Salmonella TA98; [1]): 45 rev/plate
Rev/plate (Salmonella TA98; [2]): 47 rev/plate
Rev/plate (Salmonella TA98; [3]): 61 rev/plate
Rev/plate (Salmonella TA98; [4]): 62 rev/plate
Rev/plate (Salmonella TA98; [5]): 107 rev/plate
Rev/plate (Salmonella TA98; [6]): 130 rev/plate
Rev/plate (Salmonella TA98; [7]): 64/63
Rev/plate (Salmonella TA98; [8]): 72/84
Rev/plate (Salmonella TA98; [9]): 146/141
Rev/plate (Salmonella TA98; TA98 +S9, Test 2, 150 µg/plate, zero-dose 43/41/30): 207/190
Rev/plate (Salmonella TA98; [10]): 90/111
Rev/plate (Salmonella TA98; [11]): 132/132
Rev/plate (Salmonella TA98; TA98 +S9, Test 3, 80 µg/plate, zero-dose 49/50/50): 181/199
Rev/plate (Salmonella TA98; TA98 +S9, Test 3, 150 µg/plate, zero-dose 49/50/50): 241/222
Mutagenic potency, Revertants/µg ± S.E., TA98 (Salmonella TA98; plate-incorporation, +S9): 1.4 ± 0.2 rev/µg
Mutagenicity call TA98 (Salmonella TA98; plate-incorporation, +S9): (+) (Called mutagenic (+) based on showing reproducible, dose-related increases in rev/plate that reached or exceeded 2-fold relative to zero-dose controls)
Rev/plate (Salmonella TA104; [18]): 365/338
Rev/plate (Salmonella TA104; TA104 +S9, Test 2, 5 µg/plate, zero-dose 276/260/270): 407/431
Rev/plate (Salmonella TA104; TA104 +S9, Test 2, 10 µg/plate, zero-dose 276/260/270): 475/484
Rev/plate (Salmonella TA104; TA104 +S9, Test 2, 20 µg/plate, zero-dose 276/260/270): 538/576
Rev/plate (Salmonella TA104; [19]): 475/419
Rev/plate (Salmonella TA104; TA104 +S9, Test 3, 5 µg/plate, zero-dose 402/395/336): 498/541
Rev/plate (Salmonella TA104; TA104 +S9, Test 3, 10 µg/plate, zero-dose 402/395/336): 532/550
Rev/plate (Salmonella TA104; TA104 +S9, Test 3, 20 µg/plate, zero-dose 402/395/336): 533/627
Mutagenic potency, Revertants/µg ± S.E., TA104 (Salmonella TA104): 24.9 ± 8.3 rev/µg
Rev/plate (Salmonella TA100; [12]): 280 rev/plate
Rev/plate (Salmonella TA100; [13]): 461 rev/plate
Rev/plate (Salmonella TA100; [14]): 580 rev/plate
Rev/plate (Salmonella TA100; [15]): 1052 rev/plate
Rev/plate (Salmonella TA100; [16]): 1172 rev/plate
Rev/plate (Salmonella TA100; [17]): 1286 rev/plate
Rev/plate (Salmonella TA100; TA100 +S9, Test 2, 2 µg/plate, zero-dose 84/78/80): 224/217
Rev/plate (Salmonella TA100; TA100 +S9, Test 2, 5 µg/plate, zero-dose 84/78/80): 369/364
Rev/plate (Salmonella TA100; TA100 +S9, Test 2, 10 µg/plate, zero-dose 84/78/80): 746/565
Rev/plate (Salmonella TA100; TA100 +S9, Test 2, 20 µg/plate, zero-dose 84/78/80): 593/607
Rev/plate (Salmonella TA100; TA100 +S9, Test 3, 2 µg/plate, zero-dose 127/118/125): 305/298
Rev/plate (Salmonella TA100; TA100 +S9, Test 3, 5 µg/plate, zero-dose 127/118/125): 573/564
Rev/plate (Salmonella TA100; TA100 +S9, Test 3, 10 µg/plate, zero-dose 127/118/125): 862/714
Rev/plate (Salmonella TA100; TA100 +S9, Test 3, 20 µg/plate, zero-dose 127/118/125): 1142/1113
Mutagenic potency, Revertants/µg ± S.E., TA100 (Salmonella TA100): 59.8 ± 6.1 rev/µg
Mutagenicity call TA100 (Salmonella TA100): (+) (Called mutagenic (+) based on showing reproducible, dose-related increases in rev/plate that reached or exceeded 2-fold relative to zero-dose controls)

Nc1ccc2cc3ccccc3cc2c1 [2-aminoanthracene, reference compound]
Rev/plate (Salmonella TA104; TA104 +S9, Test 1, 0.1 µg/plate, zero-dose 379/400/370): 469/478
Rev/plate (Salmonella TA104; TA104 +S9, Test 1, 0.25 µg/plate, zero-dose 379/400/370): 650/632
Rev/plate (Salmonella TA104; TA104 +S9, Test 1, 0.5 µg/plate, zero-dose 379/400/370): 849/818
Rev/plate (Salmonella TA104; TA104 +S9, Test 1, 1 µg/plate, zero-dose 379/400/370): 1004/998
Rev/plate (Salmonella TA104; TA104 +S9, Test 1, 2 µg/plate, zero-dose 379/400/370): 1335/1432
Rev/plate (Salmonella TA104; TA104 +S9, Test 2, 0.1 µg/plate, zero-dose 276/260/270): 366/337
Rev/plate (Salmonella TA104; TA104 +S9, Test 2, 0.25 µg/plate, zero-dose 276/260/270): 521/530
Rev/plate (Salmonella TA104; TA104 +S9, Test 2, 0.5 µg/plate, zero-dose 276/260/270): 764/666
Rev/plate (Salmonella TA104; TA104 +S9, Test 2, 1 µg/plate, zero-dose 276/260/270): 983/956
Rev/plate (Salmonella TA104; [18]): 1321/1392
Rev/plate (Salmonella TA104; TA104 +S9, Test 3, 0.1 µg/plate, zero-dose 402/395/336): 444/419
Rev/plate (Salmonella TA104; TA104 +S9, Test 3, 0.25 µg/plate, zero-dose 402/395/336): 570/588
Rev/plate (Salmonella TA104; TA104 +S9, Test 3, 0.5 µg/plate, zero-dose 402/395/336): 822/811
Rev/plate (Salmonella TA104; TA104 +S9, Test 3, 1 µg/plate, zero-dose 402/395/336): 1079/1097
Rev/plate (Salmonella TA104; [19]): 1434/1518
Rev/plate (Salmonella TA104; TA104 +S9, Test 4, 0.1 µg/plate, zero-dose 482/455/462): 573/564
Rev/plate (Salmonella TA104; TA104 +S9, Test 4, 0.25 µg/plate, zero-dose 482/455/462): 699/711
Rev/plate (Salmonella TA104; TA104 +S9, Test 4, 0.5 µg/plate, zero-dose 482/455/462): 864/989
Rev/plate (Salmonella TA104; TA104 +S9, Test 4, 1 µg/plate, zero-dose 482/455/462): 1185/1181
